ChEMBL document CHEMBL3431459, “Roche carnitine palmitoyltransferase modulator screening data (supplementary data associated with the publication CHEMBL2216752)”
Converted amounts (≈) assume the structure as drawn.

How the values were obtained:
[1] = biological target: T1, Carnitine O-palmitoyltransferase 1, muscle isoform (Homo sapiens, UniProt Q92523); assay: SUPPLEMENTARY: Inhibition of Carnitine palmitoyltransferase 1, muscle isoform; design: species or system Muscle tissue
T1 sequence (Q92523 whole entry): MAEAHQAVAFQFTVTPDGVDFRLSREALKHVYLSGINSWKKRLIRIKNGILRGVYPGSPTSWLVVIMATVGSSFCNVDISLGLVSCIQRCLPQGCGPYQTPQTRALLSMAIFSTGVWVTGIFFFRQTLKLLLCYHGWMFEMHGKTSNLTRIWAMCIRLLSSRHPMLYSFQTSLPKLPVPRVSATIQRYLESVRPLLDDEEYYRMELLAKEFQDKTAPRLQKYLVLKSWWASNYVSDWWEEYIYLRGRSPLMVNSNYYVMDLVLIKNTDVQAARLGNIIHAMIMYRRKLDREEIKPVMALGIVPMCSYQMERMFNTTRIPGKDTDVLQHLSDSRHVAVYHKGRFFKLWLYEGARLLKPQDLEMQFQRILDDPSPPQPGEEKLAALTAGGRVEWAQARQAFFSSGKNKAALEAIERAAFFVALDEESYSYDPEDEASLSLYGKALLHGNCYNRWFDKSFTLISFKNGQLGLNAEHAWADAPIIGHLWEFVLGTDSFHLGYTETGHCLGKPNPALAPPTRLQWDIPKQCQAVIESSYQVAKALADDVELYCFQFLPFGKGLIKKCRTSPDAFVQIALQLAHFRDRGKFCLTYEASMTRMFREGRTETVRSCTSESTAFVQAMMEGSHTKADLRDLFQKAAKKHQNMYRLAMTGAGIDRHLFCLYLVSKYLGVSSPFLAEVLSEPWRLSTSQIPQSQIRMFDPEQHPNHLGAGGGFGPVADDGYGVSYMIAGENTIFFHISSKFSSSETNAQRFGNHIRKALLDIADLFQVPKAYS

[2] = biological target: T2, Carnitine O-palmitoyltransferase 2, mitochondrial (Homo sapiens, UniProt P23786); assay: (§1) SUPPLEMENTARY: Inhibition of Carnitine palmitoyltransferase 2
T2 sequence (P23786 whole entry): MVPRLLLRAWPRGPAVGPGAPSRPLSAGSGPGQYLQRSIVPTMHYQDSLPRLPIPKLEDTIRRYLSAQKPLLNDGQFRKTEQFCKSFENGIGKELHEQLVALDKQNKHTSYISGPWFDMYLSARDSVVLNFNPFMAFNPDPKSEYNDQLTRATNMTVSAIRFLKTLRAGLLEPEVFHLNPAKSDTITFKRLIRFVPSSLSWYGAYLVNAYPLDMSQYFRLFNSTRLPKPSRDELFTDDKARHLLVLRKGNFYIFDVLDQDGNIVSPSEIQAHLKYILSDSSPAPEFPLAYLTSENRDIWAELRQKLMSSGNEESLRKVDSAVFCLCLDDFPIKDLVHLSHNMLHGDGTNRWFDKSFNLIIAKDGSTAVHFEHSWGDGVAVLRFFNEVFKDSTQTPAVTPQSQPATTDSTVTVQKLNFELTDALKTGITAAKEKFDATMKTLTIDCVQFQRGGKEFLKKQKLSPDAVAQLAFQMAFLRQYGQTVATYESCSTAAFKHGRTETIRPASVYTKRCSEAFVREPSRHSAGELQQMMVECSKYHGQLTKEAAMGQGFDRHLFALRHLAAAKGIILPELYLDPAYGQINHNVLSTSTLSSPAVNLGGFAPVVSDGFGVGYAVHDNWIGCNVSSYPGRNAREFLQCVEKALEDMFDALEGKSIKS

[3] = biological target: T3, Carnitine O-palmitoyltransferase 2, mitochondrial (Rattus norvegicus, UniProt P18886); assay: as §1
T3 sequence (P18886 whole entry): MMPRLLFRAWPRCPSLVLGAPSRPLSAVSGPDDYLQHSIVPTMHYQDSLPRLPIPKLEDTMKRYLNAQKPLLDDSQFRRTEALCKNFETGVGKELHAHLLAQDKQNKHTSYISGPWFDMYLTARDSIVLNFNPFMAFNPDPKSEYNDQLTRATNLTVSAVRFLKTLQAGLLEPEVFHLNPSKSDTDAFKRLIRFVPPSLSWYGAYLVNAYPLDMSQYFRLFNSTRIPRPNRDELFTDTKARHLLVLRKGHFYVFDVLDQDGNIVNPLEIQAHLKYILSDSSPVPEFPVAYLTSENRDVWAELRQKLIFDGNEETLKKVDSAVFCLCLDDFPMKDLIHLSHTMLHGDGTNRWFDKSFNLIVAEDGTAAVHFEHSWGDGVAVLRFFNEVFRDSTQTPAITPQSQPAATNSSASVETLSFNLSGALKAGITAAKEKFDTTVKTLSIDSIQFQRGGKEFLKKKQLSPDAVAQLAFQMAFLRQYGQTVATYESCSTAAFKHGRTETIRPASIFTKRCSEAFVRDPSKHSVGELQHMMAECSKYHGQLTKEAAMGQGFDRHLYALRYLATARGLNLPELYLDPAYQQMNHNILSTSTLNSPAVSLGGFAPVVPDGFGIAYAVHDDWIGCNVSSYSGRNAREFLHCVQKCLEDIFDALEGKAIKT

[4] = biological target: T4, Carnitine O-palmitoyltransferase 1, liver isoform (Homo sapiens, UniProt P50416); assay: (§2) SUPPLEMENTARY: Inhibition of Carnitine palmitoyltransferase 1, liver isoform
T4 sequence (P50416 whole entry): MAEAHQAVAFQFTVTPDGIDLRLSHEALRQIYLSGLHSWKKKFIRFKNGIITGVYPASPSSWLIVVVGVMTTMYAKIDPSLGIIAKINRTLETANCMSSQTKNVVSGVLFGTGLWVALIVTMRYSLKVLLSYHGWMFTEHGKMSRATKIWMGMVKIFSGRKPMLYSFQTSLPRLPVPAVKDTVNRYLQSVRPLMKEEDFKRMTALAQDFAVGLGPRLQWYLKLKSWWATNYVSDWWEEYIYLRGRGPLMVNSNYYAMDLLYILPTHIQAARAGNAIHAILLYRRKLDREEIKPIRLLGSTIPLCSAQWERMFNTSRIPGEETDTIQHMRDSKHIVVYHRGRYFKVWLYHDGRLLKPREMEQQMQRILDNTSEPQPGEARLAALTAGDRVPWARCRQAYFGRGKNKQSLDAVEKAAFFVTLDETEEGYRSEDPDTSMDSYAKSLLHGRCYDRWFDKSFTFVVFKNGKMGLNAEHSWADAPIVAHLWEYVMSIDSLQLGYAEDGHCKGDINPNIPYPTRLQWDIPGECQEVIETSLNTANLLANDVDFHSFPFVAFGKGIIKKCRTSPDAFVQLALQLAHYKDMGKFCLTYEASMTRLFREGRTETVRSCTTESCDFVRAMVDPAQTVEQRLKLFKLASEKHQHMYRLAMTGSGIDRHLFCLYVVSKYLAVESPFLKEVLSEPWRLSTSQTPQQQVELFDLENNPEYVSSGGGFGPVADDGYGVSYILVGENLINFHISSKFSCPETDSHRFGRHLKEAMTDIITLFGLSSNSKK

[5] = biological target: T5, Carnitine O-palmitoyltransferase 1, liver isoform (Rattus norvegicus, UniProt P32198); assay: as §2
T5 sequence (P32198 whole entry): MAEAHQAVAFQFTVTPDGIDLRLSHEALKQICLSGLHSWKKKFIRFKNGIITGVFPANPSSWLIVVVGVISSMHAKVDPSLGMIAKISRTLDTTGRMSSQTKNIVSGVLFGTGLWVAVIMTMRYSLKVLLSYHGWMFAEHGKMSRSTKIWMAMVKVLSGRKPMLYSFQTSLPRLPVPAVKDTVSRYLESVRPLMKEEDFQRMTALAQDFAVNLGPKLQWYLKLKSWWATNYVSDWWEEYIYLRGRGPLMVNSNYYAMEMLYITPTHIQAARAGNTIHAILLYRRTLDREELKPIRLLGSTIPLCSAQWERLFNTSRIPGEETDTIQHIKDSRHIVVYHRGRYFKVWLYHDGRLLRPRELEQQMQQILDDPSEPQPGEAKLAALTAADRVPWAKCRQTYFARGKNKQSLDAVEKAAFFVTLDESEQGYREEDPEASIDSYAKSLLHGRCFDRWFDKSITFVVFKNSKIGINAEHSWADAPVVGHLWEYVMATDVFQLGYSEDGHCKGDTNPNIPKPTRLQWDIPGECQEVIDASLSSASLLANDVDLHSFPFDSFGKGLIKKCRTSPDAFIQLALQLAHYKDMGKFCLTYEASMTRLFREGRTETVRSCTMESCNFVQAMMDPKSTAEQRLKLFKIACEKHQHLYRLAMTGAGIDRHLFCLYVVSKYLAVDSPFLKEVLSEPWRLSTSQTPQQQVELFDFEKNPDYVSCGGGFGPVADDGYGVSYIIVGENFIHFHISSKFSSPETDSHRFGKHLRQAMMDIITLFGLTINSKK

[6] = SUPPLEMENTARY: Lyophilisation Solubility Assay (LYSA); format: physicochemical; details: read-out: Kinetic_solubility
[7] = SUPPLEMENTARY: Lipophilicity (log D) Determination by high-throughput shake-flask; format: physicochemical; details: octanol/water
[8] = SUPPLEMENTARY: PAMPA permeability assay; format: physicochemical; details: read-out: Permeability

Row | Compound | IC50 [1] [nM] | IC50 [2] [nM] | IC50 [3] [nM] | IC50 [4] [nM] | IC50 [5] [nM] | solubility kinetic [6] [µg/mL] | logD [7] | Papp [8] [×10⁻⁶ cm/s]
1 | COc1ccc(Cl)cc1S(=O)(=O)N1CC(C(=O)O)Oc2ccc(C(=O)Nc3ccccc3)cc21 (stereo unspecified) | 27300 | > 100000 | > 100000 | 34.5 | 25.9 | 446 (≈ 887 µM) | -0.45 | 0.03
2 | O=C1Cc2ccc(-c3n[nH]c([C@H]4CCCCN4C(=O)COc4ccccc4)n3)cc2N1 | > 100000 | 39800 | 42900 | 211 | 1150 | 73 (≈ 175 µM) | 2.35 | 3.29
3 | Cc1nnsc1-c1noc([C@H]2CCCCN2C(=O)COc2ccccc2)n1 | > 100000 | > 100000 | > 100000 | 293 | 1670 | 27 (≈ 70 µM) | 3.04 | 5.95
4 | Cc1cc(-c2nc([C@H]3CCCCN3C(=O)COc3ccccc3)no2)no1 | > 100000 | > 100000 | > 100000 | 166 | 448 | 39 (≈ 106 µM) | 2.62 | 6.78
5 | O=C(COc1ccccc1)N1CCCC[C@@H]1c1nc(-c2ccccc2F)n[nH]1 | > 100000 | 81400 | > 100000 | 106 | 187 | 61.5 (≈ 162 µM) | 3.06 | 4.79

The next molecules have a lower IC50 [1] than those just listed; values first:

Row | IC50 [1] [nM] | IC50 [2] [nM] | IC50 [3] [nM] | IC50 [4] [nM] | IC50 [5] [nM] | solubility kinetic [6] [µg/mL] | logD [7] | Papp [8] [×10⁻⁶ cm/s] | Compound
6 | 1180 | 584 | 3880 | 92.2 | 46.7 | 493 (≈ 950 µM) | 0.6 | 1.99 | COc1ccc(Cl)cc1S(=O)(=O)N1CC(C)c2ccc(C(=O)Nc3ccc(C(=O)O)c(F)c3)cc21 (stereo unspecified)
7 | 2570 | 2460 | 10000 | 74.9 | 27.2 | 14 (≈ 30.2 µM) | 2.21 | 0.76 | Cc1cc(C)cc(S(=O)(=O)c2nn(C)c3ccc(C(=O)Nc4ccc(C(=O)O)cc4)cc23)c1
